Where two headings read alike, the source gives them in different places.
Tests used:
Type in all cases: cell-based
HT29 cells [1] = experiment: Combined use of compound 257 or AMG650 with PLK1 inhibitor (Volasertib) on HT29 cell viability, 168 h (Biological Example 22); settings: for IC50: Homo sapiens, HT-29, 168 h
Protocol: HT29 cells were seeded on a 384-well plate at 3000 cells/well. After overnight adherence culture, DMSO or compound 257 or AMG650 serially diluted in a 1:5 ratio from 400 nM and a PLK1 inhibitor with a specified concentration were added. The cell viability was assessed 168 h after dosing by measuring the intracellular ATP content. […] Furthermore, interactions between the drugs were also analyzed using the BLISS independence model, and the results are shown in FIG. 15 and FIG. 16.

HT29 cells [2] = experiment: Combined use of compound 257, AMG650 or Compound A with PLK1 inhibitor on HT29 cell viability, 168 h (Biological Example 19); settings: for IC50: Homo sapiens, HT-29, 168 h, HT29 cells, read-out: IC50
Protocol: HT29 cells were seeded on a 384-well plate at 3000 cells/well.

HCT116 cells [3] = experiment: Combined use of compound 257, AMG650 or Compound A with PLK1 inhibitor on HCT116 cell viability, 168 h (Biological Example 20)
Protocol: HCT116 cells were seeded on a 384-well plate at 3000 cells/well. After overnight adherence culture, DMSO or compound 257, AMG650, or Compound A serially diluted in a 1:5 ratio from 400 nM and a PLK1 inhibitor with a specified concentration were added. The cell viability was assessed 168 h after dosing by measuring the intracellular ATP content. The inhibition percentages of viable cells by the compounds were calculated by comparing with the DMSO group, and the IC50 values were also calculated.

SK-OV-3 cells = experiment: Combined use of compound 257 or AMG650 with PLK1 inhibitor on SK-OV-3 cell viability, 168 h (Biological Example 21); settings: for IC50: Homo sapiens, SK-OV-3, 168 h
Protocol: SK—OV-3 cells were seeded on a 384-well plate at 3000 cells/well. After overnight adherence culture, DMSO or compound 257 or AMG650 serially diluted in a 1:5 ratio from 400 nM and a PLK1 inhibitor with a specified concentration were added. The cell viability was assessed 168 h after dosing by measuring the intracellular ATP content. […] Furthermore, interactions between the drugs were also analyzed using the BLISS independence model, and the results are shown in FIG. 11 and FIG. 12.

HCT116 cells [4] = experiment: Combined use of compound 257 or AMG650 with PLK1 inhibitor on HCT116 cell viability, 168 h (Biological Example 8)
Protocol: HCT116 cells were seeded on a 384-well plate at 3000 cells/well. After overnight adherence culture, DMSO or compound 257 or AMG650 serially diluted in a 1:5 ratio from 10 μM and a PLK1 inhibitor with a specified concentration were added. The cell viability was assessed 168 h after dosing by measuring the intracellular ATP content. The inhibition percentages of viable cells by the compounds were calculated by comparing with the DMSO group, and the IC50 values were also calculated.

HT29 cells [5] = experiment: Combined use of compound 257 or AMG650 with PLK1 inhibitor on HT29 cell viability, 168 h (Biological Example 7); settings: for Maximum inhibition rate / Minimum inhibition rate / IC50: HT29 cells; for IC50: Homo sapiens, HT-29, 168 h
Protocol: HT29 cells were seeded on a 384-well plate at 3000 cells/well. After overnight adherence culture, DMSO or compound 257 or AMG650 serially diluted in a 1:5 ratio from 400 nM and a PLK1 inhibitor with a specified concentration were added. The cell viability was assessed 168 h after dosing by measuring the intracellular ATP content. The inhibition percentages of viable cells by the compounds were calculated by comparing with the DMSO group, and the IC50 values were also calculated.

Cc1cc(NC(=O)c2ccc(NS(=O)(=O)CCO)cc2N2CCC3(CC2)CC3)nc(N2CCC(F)(F)CC2)n1 [AMG650]
inhibitory effect on HT-29 cells, combined use with the PLK1 inhibitor compared with monotherapy (HT29 cells [1]; 168 h, Volasertib, in words): stronger inhibitory effect | IC50 (HT29 cells [1]): 30.2 nM | IC50 (HT29 cells [1]; HT29 cells, 168 h, Volasertib 0.0001 nM, read-out: IC50): 79.9 nM | IC50 (HT29 cells [1]; HT29 cells, 168 h, Volasertib 3.13 nM, read-out: IC50): 43 nM | IC50 (HT29 cells [1]; HT29 cells, 168 h, Volasertib 12.5 nM, read-out: IC50): 14.2 nM | IC50 (HT29 cells [1]; HT29 cells, 168 h, Volasertib 25 nM, read-out: IC50): 5.9 nM | inhibitory effect on HT-29 cells, combined use with the PLK1 inhibitor compared with monotherapy (HT29 cells [2]; CYC140 or TAK-960, in words): stronger inhibitory effect | IC50 (HT29 cells [2]; CYC140 (Plogosertib) 0.0001 nM): 91.8 nM | IC50 (HT29 cells [2]; CYC140 (Plogosertib) 1.6 nM): 74.4 nM | IC50 (HT29 cells [2]; CYC140 (Plogosertib) 8 nM): 50.6 nM | IC50 (HT29 cells [2]; CYC140 (Plogosertib) 40 nM): 11.1 nM | IC50 (HT29 cells [2]; TAK-960 0.0001 nM): 88.9 nM | IC50 (HT29 cells [2]; TAK-960 1.6 nM): 58.6 nM | IC50 (HT29 cells [2]; TAK-960 8 nM): 16.5 nM | IC50 (HT29 cells [2]; TAK-960 40 nM): 16.1 nM | synergistic effect on HCT116 cell viability, combined use with the PLK1 inhibitor (HCT116 cells [3]; CYC140 or TAK-960, in words): no significant synergistic effect | IC50 (HCT116 cells [3]; HCT116 cells, CYC140 (Plogosertib) 1.6 nM): > 400 nM | IC50 (HCT116 cells [3]; HCT116 cells, CYC140 (Plogosertib) 8 nM): > 400 nM | IC50 (HCT116 cells [3]; HCT116 cells, CYC140 (Plogosertib) 40 nM): > 400 nM | IC50 (HCT116 cells [3]; HCT116 cells, TAK-960 0 nM): > 400 nM | IC50 (HCT116 cells [3]; HCT116 cells, TAK-960 1.6 nM): > 400 nM | IC50 (HCT116 cells [3]; HCT116 cells, TAK-960 8 nM): > 400 nM | IC50 (HCT116 cells [3]; HCT116 cells, TAK-960 40 nM): > 400 nM | IC50 (HCT116 cells [3]; Homo sapiens, HCT-116, HCT116 cells, CYC140 (Plogosertib) 0 nM): > 400 nM | anti-proliferative activity against HCT116 cells, monotherapy (HCT116 cells [3]; in words): did not exhibit anti-proliferative activity | inhibitory effect on SK-OV-3 cells, combined use with the PLK1 inhibitor compared with monotherapy (SK-OV-3 cells; 168 h, Volasertib, in words): stronger inhibitory effect | IC50 (SK-OV-3 cells): 66 nM | IC50 (SK-OV-3 cells; SK-OV-3 cells, 168 h, Volasertib 0.0001 nM, read-out: IC50): 72.2 nM | IC50 (SK-OV-3 cells; SK-OV-3 cells, 168 h, Volasertib 6.25 nM, read-out: IC50): 51.7 nM | IC50 (SK-OV-3 cells; SK-OV-3 cells, 168 h, Volasertib 12.5 nM, read-out: IC50): 34.5 nM | IC50 (SK-OV-3 cells; SK-OV-3 cells, 168 h, Volasertib 25 nM, read-out: IC50): 27.1 nM | IC50 (SK-OV-3 cells; SK-OV-3 cells, 168 h, Volasertib 50 nM, read-out: IC50): 11.2 nM | IC50 (HCT116 cells [4]; HCT116 cells, Volasertib 3.12 nM): > 10 µM | IC50 (HCT116 cells [4]; HCT116 cells, Volasertib 6.25 nM): > 10 µM | IC50 (HCT116 cells [4]; Homo sapiens, HCT-116, HCT116 cells, Volasertib 0 nM): > 10 µM | synergistic effect on HCT116 cell viability, combined use with the PLK1 inhibitor (HCT116 cells [4]; Volasertib, in words): no significant synergistic effect | anti-proliferative activity against HCT116 cells, monotherapy (HCT116 cells [4]; in words): did not exhibit anti-proliferative activity | Maximum inhibition rate (HT29 cells [5]; Volasertib 0 nM): 96.5% | Minimum inhibition rate (HT29 cells [5]; Volasertib 0 nM): −1.4% | Maximum inhibition rate (HT29 cells [5]; Volasertib 3.12 nM): 95.8% | Minimum inhibition rate (HT29 cells [5]; Volasertib 3.12 nM): 3.3% | Maximum inhibition rate (HT29 cells [5]; Volasertib 6.25 nM): 97.0% | Minimum inhibition rate (HT29 cells [5]; Volasertib 6.25 nM): −0.4% | IC50 (HT29 cells [5]; Volasertib 0 nM): 84.4 nM | IC50 (HT29 cells [5]; Volasertib 3.12 nM): 26.6 nM | IC50 (HT29 cells [5]; Volasertib 6.25 nM): 16.4 nM | inhibitory effect on HT-29 cells, combined use with the PLK1 inhibitor compared with monotherapy (HT29 cells [5]; Volasertib, in words): stronger inhibitory effect

Source: patent publication US20260191849A1, “PHARMACEUTICAL COMPOSITION FOR TREATMENT OF CANCER” (WIGEN BIOMEDICINE TECHNOLOGY (SHANGHAI) CO., LTD., priority 2022, published 2026)
